# Test results taken from patent US12351580B2, “NLRP3 modulators” (Innate Tumor Immunity, Inc., priority 2017, dated 2025).
# Target: T1, TLR7 (Homo sapiens, UniProt Q9NYK1)
# T1 construct: host or cells: HEK-Blue cells (human HEK) co-expressing TLR7 and an NF-kB/AP1-inducible SEAP reporter
# T1 sequence (Q9NYK1 27-1049): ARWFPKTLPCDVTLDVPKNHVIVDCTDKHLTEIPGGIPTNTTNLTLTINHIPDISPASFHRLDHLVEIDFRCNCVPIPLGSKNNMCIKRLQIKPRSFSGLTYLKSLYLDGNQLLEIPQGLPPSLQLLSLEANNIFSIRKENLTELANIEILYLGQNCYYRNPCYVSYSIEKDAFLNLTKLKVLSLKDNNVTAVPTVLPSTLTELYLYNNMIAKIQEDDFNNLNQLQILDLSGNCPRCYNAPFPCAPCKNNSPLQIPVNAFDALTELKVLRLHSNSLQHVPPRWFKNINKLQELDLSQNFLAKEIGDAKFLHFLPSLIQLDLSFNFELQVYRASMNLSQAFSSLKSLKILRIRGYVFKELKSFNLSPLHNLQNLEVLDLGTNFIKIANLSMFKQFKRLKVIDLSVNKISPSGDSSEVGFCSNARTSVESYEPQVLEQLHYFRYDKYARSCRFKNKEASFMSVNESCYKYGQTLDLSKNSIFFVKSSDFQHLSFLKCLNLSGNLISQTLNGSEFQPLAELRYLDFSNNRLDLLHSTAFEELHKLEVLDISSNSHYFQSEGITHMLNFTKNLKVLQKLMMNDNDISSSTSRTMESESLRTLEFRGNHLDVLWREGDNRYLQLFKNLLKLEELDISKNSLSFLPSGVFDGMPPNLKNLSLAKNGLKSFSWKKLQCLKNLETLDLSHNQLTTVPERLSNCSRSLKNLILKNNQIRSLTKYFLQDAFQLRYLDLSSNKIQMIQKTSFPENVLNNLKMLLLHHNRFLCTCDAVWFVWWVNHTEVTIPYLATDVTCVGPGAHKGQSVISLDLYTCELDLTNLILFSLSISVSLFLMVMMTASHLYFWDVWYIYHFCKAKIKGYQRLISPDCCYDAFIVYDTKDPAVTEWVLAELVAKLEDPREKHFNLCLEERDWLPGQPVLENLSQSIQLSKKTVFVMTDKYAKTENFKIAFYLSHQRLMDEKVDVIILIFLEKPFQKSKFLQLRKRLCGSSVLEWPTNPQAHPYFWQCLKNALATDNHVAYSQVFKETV
# Assay: In vitro human TLR7 binding reporter assay (HEK-Blue, NF-kB/AP1-inducible SEAP)
# Assay type: cell-based
# Settings: activity range symbols
# Summary of the method: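 Reporter cells are plated at 15,000 per well and rested 24 h. Next day, test compounds or DMSO are dispensed, followed by 18 h incubation at 37 °C, 5% CO2.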
row,Compound,EC50
1,CCN(Cc1nc2c(N)nc3cc(Cl)ccc3c2n1CCCC(=O)N1CCN(C)CC1)C(C)=O [Compound 221],> 100 µM
2,CCN(Cc1nc2c(N)nc3cc(Cl)ccc3c2n1CCCC(=O)N1CCCC1)C(C)=O [Compound 222],> 100 µM
3,CCN(Cc1nc2c(N)nc3ccccc3c2n1CCC(=O)N1CCS(=O)(=O)CC1)C(=O)OC(C)(C)C [Compound 223],20 to 100 µM
4,CCNCc1nc2c(N)nc3cc(Br)ccc3c2[nH]1 [Compound 225],> 100 µM
5,CCN(Cc1nc2c(N)nc3cc(C(F)(F)F)ccc3c2n1CCCC(=O)NC)C(=O)OC(C)(C)C [Compound 226],> 100 µM
6,CCNCc1nc2c(N)nc3cc(C(F)(F)F)ccc3c2n1CCCC(=O)OC [Compound 227],20 to 100 µM
7,CCN(Cc1nc2c(N)nc3cc(C(F)(F)F)ccc3c2n1CCCC(=O)N1CCOCC1)C(=O)OC(C)(C)C [Compound 228],> 100 µM
8,CCN(Cc1nc2c(N)nc3cc(C(F)(F)F)ccc3c2n1CCCC(=O)OC)C(C)=O [Compound 229],> 100 µM
9,COc1ccc(-c2ccc3c(c2)nc(N)c2nc(CN4CCCC4=O)[nH]c23)cc1 [Compound 230],> 100 µM
10,CC(=O)NCc1nc2c(N)nc3ccccc3c2[nH]1 [Compound 233],1 to 20 µM
11,Nc1nc2ccccc2c2[nH]c(CN3CCCC3=O)nc12 [Compound 278],20 to 100 µM
12,"Nc1nc2cc(-c3cccnc3)ccc2c2[nH]c(CN3CCCC3=O)nc12 [Compound 279, 1-[(4-amino-7-pyridin-3-yl-1H-imidazo[4,5-c]quinolin-2-yl)methyl]pyrrolidin-2-one]",> 100 µM
13,"Nc1nc2cc(-c3ccccc3)ccc2c2[nH]c(CN3CCCC3=O)nc12 [Compound 280, 1-[(4-amino-7-phenyl-1H-imidazo[4,5-c]quinolin-2-yl)methyl]pyrrolidin-2-one]",> 100 µM
14,"Nc1nc2cc(-c3ccccc3Cl)ccc2c2[nH]c(CN3CCCC3=O)nc12 [Compound 281, 1-[[4-amino-7-(2-chlorophenyl)-1H-imidazo[4,5-c]quinolin-2-yl]methyl]pyrrolidin-2-one]",> 100 µM
15,"Cc1ccccc1-c1ccc2c(c1)nc(N)c1nc(CN3CCCC3=O)[nH]c12 [Compound 282, 1-[[4-amino-7-(2-methylphenyl)-1H-imidazo[4,5-c]quinolin-2-yl]methyl]pyrrolidin-2-one]",> 100 µM
16,"COc1ccccc1-c1ccc2c(c1)nc(N)c1nc(CN3CCCC3=O)[nH]c12 [Compound 283, 1-[[4-amino-7-(2-methoxyphenyl)-1H-imidazo[4,5-c]quinolin-2-yl]methyl]pyrrolidin-2-one]",> 100 µM
17,"Nc1nc2cc(-c3ccccc3F)ccc2c2[nH]c(CN3CCCC3=O)nc12 [Compound 284, 1-[[4-amino-7-(2-fluorophenyl)-1H-imidazo[4,5-c]quinolin-2-yl]methyl]pyrrolidin-2-one]",> 100 µM
18,"Nc1nc2cc(-c3cccc(Cl)c3)ccc2c2[nH]c(CN3CCCC3=O)nc12 [Compound 285, 1-[[4-amino-7-(3-chlorophenyl)-1H-imidazo[4,5-c]quinolin-2-yl]methyl]pyrrolidin-2-one]",> 100 µM
19,"Cc1cccc(-c2ccc3c(c2)nc(N)c2nc(CN4CCCC4=O)[nH]c23)c1 [Compound 286, 1-[[4-amino-7-(3-methylphenyl)-1H-imidazo[4,5-c]quinolin-2-yl]methyl]pyrrolidin-2-one]",> 100 µM
20,"COc1cccc(-c2ccc3c(c2)nc(N)c2nc(CN4CCCC4=O)[nH]c23)c1 [Compound 287, 1-[[4-amino-7-(3-methoxyphenyl)-1H-imidazo[4,5-c]quinolin-2-yl]methyl]pyrrolidin-2-one]",> 100 µM
21,"N#Cc1cccc(-c2ccc3c(c2)nc(N)c2nc(CN4CCCC4=O)[nH]c23)c1 [Compound 288, 3-[4-amino-2-[(2-oxopyrrolidin-l-yl)methyl]-1H-imidazo[4,5-c]quinolin-7-yl]benzonitrile]",> 100 µM
22,"Nc1nc2cc(-c3cccc(F)c3)ccc2c2[nH]c(CN3CCCC3=O)nc12 [Compound 289, 1-[[4-amino-7-(3-fluorophenyl)-1H-imidazo[4,5-c]quinolin-2-yl]methyl]pyrrolidin-2-one]",> 100 µM
23,"Cc1ccc(-c2ccc3c(c2)nc(N)c2nc(CN4CCCC4=O)[nH]c23)cc1 [Compound 291, 1-[[4-amino-7-(4-methylphenyl)-1H-imidazo[4,5-c]quinolin-2-yl]methyl]pyrrolidin-2-one]",> 100 µM
24,"Nc1nc2cc(Br)ccc2c2[nH]c(CN3CCCC3=O)nc12 [Compound 294, 1-[(4-amino-7-bromo-1H-imidazo[4,5-c]quinolin-2-yl)methyl]pyrrolidin-2-one]",20 to 100 µM
25,"Nc1nc2cc(-n3cccn3)ccc2c2[nH]c(CN3CCCC3=O)nc12 [Compound 295, 1-[(4-amino-7-pyrazol-1-yl-1H-imidazo[4,5-c]quinolin-2-yl)methyl]pyrrolidin-2-one]",> 100 µM
26,"Cc1cnn(-c2ccc3c(c2)nc(N)c2nc(CN4CCCC4=O)[nH]c23)c1 [Compound 296, 1-[[4-amino-7-(4-methylpyrazol-1-yl)-1H-imidazo[4,5-c]quinolin-2-yl]methyl]pyrrolidin-2-one]",> 100 µM
27,"Nc1nc2cc(C3CCOCC3)ccc2c2[nH]c(CN3CCCC3=O)nc12 [Compound 298, 1-[[4-amino-7-(oxan-4-yl)-1H-imidazo[4,5-c]quinolin-2-yl]methyl]pyrrolidin-2-one]",1 to 20 µM
28,"Cc1ccn(-c2ccc3c(c2)nc(N)c2nc(CN4CCCC4=O)[nH]c23)n1 [Compound 301, 1-[[4-amino-7-(3-methylpyrazol-1-yl)-1H-imidazo[4,5-c]quinolin-2-yl]methyl]pyrrolidin-2-one]",> 100 µM
29,"Nc1nc2cc(C3CCCCC3)ccc2c2[nH]c(CN3CCCC3=O)nc12 [Compound 302, 1-[(4-amino-7-cyclohexyl-1H-imidazo[4,5-c]quinolin-2-yl)methyl]pyrrolidin-2-one]",> 100 µM
30,"CC(c1nc2c(N)nc3cc(Br)ccc3c2[nH]1)N1CCCC1=O (stereo not drawn) [Compound 303, 1-[1-(4-amino-7-bromo-1H-imidazo[4,5-c]quinolin-2-yl)ethyl]pyrrolidin-2-one]",20 to 100 µM
